PMC3731256, “Optimization of Substituted 6-Salicyl-4-Anilinoquinazoline Derivatives as Dual EGFR/HER2 Tyrosine Kinase Inhibitors” (PLoS ONE, 2013)

Legend:
H1975 cells = experiment: Antiproliferation WST-1 assay, H1975; format: cell-based; conditions: Homo sapiens, NCI-H1975, NSCLC, EGFR L858R/T790M
Method: WST-1 is better than MTT for analyzing cell proliferation, because it can be reduced to soluble formazan by dehydrogenase in mitochondria and has little toxicity to cells. Cell proliferation was determined using WST-1 dye (Beyotime Inst Biotech, China) according to manufacture’s instructions. Brieﬂy, 5 × 10^3 cells per well were seeded in a 96-well plate, grown at 37 ℃ for 24 h, and then placed in serum-starved conditions for a further 6 h. Subsequently, cells were treated with compounds (Table 1) at increasing concentrations in the presence of 10% FBS for 24 or 48h. After 10 µL WST-1 dye was added to each well, cells were incubated at 37 ℃ for 2 h and the absorbance was ﬁnally determined at 450 nm using a microplate reader.

human EGFR = biological target: T1, human EGFR (Homo sapiens, UniProt P00533); experiment: EGFR kinase assay ([γ-32P] ATP, poly-Glu-Tyr); format: biochemical
T1 construct: the cytoplasmic domain (amino acids 669-1210) of human EGFR; FLAG (DYKDDDD) (N); made in house
Method: The expressed HER2 kinase and EGFR kinase were purified by anti-FLAG M2 affinity gel (Sigma-Aldrich, USA). The HER2 and EGFR kinase assays were performed using radiolabeled [γ-^32P] ATP (GEHealthcare, USA) in 96-well plates. The kinase reactions were performed in 50 mmol/L Tris-HCl, pH7.5, 5 mmol/L MnCl2, 0.01% Tween-20 and 2 mmol/L DTT containing 0.9 μCi of [γ-^32P] ATP per reaction, 50 μmol/L ATP, 5 μg/mL poly-Glu-Tyr (4:1) and 0.25 μg/mL of purified Her2 or EGFR cytoplasmic domain in a total volume of 50 μL. […] Kinase reactions were initiated by adding ATP. After the kinase reaction incubated for 10 minutes at room temperature, reactions were terminated by the addition of 10% (final concentration) trichloroacetic acid. The [γ-^32P]-phosphorylated proteins were filtered in a harvest plate (Millipore, USA) with a cell harvester (PerkinElmer, USA) and washed free of [γ-^32P] ATP with 3% phosphoric acid. The plates were dried, followed by the addition of 25 μL of MicroScintO (PerkinElmer, USA). Radioactivity was counted by a Topcount scintillation counter (PerkinElmer, USA).

PDGFRα = biological target: T2, PDGFRα (Homo sapiens, UniProt P16234); experiment: Tyrosine kinase profiling (Alphascreen), PDGFRα; format: biochemical; conditions: ATP concentration = Km
T2 construct: The cytoplasmic domain of vascular endothelial growth factor receptor 2 (VEGFR2), platelet-derived growth factor receptor α (PDGFRα); purchased Millipore Corp
Method: The cytoplasmic domain of vascular endothelial growth factor receptor 2 (VEGFR2), platelet-derived growth factor receptor α (PDGFRα), cSRC were purchased from Millipore Corp. Assays for 3 tyrosine kinases were performed in 384 well plates using the Alphascreen® system (PerkinElmer) at room temperature. Enzyme reactions were performed in 50 mM Tris–HCl, pH7.5, 5 mM MnCl2, 5 mM MgCl2, 0.01% Tween-20, 2 mM dithiothreitol and 0.1 μg/ml biotinylated poly-GluTyr (4:1) containing optimized concentration of enzyme and ATP as described below.
Prior to the kinase reaction, compound and enzyme were incubated for 5 min at room temperature. The reactions were initiated by adding ATP. After the reaction period as described below at room temperature, the reactions were stopped by the addition of 25 μl of 100 mM EDTA, 10 μg/ml Alphascreen streptavidin donor beads and 10 μg/ml acceptor beads described below in 62.5 mM HEPES, pH 7.4, 250 mM NaCl, and 0.1% BSA. Plates were incubated in the dark for more than 12 h and then read by EnVision 2102 Multilabel Reader (PerkinElmer). The well containing substrate and enzyme without compound was used as total reaction control. […]

T1 sequence (P00533 669-1210): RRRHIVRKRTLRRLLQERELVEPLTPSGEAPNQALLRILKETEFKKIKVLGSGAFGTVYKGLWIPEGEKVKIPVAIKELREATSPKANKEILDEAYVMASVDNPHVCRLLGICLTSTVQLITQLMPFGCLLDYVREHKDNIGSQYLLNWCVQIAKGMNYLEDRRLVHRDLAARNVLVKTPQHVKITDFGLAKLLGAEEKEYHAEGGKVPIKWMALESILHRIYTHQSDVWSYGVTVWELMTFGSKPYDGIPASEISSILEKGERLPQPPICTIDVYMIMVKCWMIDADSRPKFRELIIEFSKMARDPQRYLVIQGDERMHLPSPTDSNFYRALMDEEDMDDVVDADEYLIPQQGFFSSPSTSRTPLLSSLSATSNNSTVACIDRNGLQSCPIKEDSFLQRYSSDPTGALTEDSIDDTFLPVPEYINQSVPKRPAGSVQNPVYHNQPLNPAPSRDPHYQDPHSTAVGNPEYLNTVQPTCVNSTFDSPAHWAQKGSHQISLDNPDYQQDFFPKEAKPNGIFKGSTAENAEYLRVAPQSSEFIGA
T2 sequence (P16234 550-1089 limits assumed, species assumed): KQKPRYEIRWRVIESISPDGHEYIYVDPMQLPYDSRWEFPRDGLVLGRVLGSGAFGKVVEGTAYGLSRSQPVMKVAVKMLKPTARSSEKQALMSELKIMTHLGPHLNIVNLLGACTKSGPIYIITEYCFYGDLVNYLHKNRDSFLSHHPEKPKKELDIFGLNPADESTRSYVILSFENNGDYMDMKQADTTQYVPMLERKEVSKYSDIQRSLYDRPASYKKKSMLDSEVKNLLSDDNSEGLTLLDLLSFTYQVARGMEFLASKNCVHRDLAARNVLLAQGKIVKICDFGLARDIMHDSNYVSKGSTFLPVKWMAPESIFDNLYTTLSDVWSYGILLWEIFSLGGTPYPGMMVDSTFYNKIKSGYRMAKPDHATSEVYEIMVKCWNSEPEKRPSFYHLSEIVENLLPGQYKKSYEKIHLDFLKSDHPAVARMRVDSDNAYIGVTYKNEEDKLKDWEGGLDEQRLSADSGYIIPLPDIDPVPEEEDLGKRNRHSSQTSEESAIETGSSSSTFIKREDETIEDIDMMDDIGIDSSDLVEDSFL

## O=C(Nc1ccc2ncnc(Nc3cccc(Br)c3)c2c1)c1ccc(C(F)(F)F)cc1O [Compound 21, N-(4-(3-bromophenylamino)quinazolin-6-yl)-2-hydroxy-4-(trifluoromethyl)benzamide]
H1975 cells
  IC50: 3.3 ± 0.233 µM
Human EGFR; converted from IC50 by online calculator
  pIC50 EGFR: 6.92
Human EGFR; phosphorylation of poly-Glu-Tyr copolymer, mean, >1 determination, read-out: Enzyme activity IC50 against EGFR kinase
  IC50: 0.12 ± 0.012 µM
PDGFRα
  IC50: 17.3 ± 0.06 µM
other
  melting point: 289 to 291 °C
